“Also recorded” adds a separate entry of the source.
Experiments:
[1] = system: patients with confirmed relapsed/refractory MM, CLL, or NHL; assay: Phase I safety and tolerability: adverse events, DLT, MTD, RP2D; assay type: in vivo, human
Hsp90 = details: ref Nakashima et al, 2010; Ishii et al, 2012; cited from earlier work

CCc1c(O)cc(O)c(C(=O)c2ccc(OCCN3CCOCC3)c(OC)c2)c1CC(=O)N(CCOC)CCOC [KW-2478]
Abdominal pain (any AE) ([1]; 99 mg m^–2 (n=4)): 1 (25.0) No. of patients (%)
Acne (any AE) ([1]; 99 mg m^–2 (n=4)): 0 No. of patients (%)
Anaemia (any AE) ([1]; 99 mg m^–2 (n=4)): 0 No. of patients (%)
Anorexia (any AE) ([1]; 99 mg m^–2 (n=4)): 0 No. of patients (%)
Back pain (any AE) ([1]; 99 mg m^–2 (n=4)): 2 (50.0) No. of patients (%)
Diarrhoea (any AE) ([1]; 99 mg m^–2 (n=4)): 2 (50.0) No. of patients (%)
Dizziness (any AE) ([1]; 99 mg m^–2 (n=4)): 0 No. of patients (%)
Fatigue (any AE) ([1]; 99 mg m^–2 (n=4)): 2 (50.0) No. of patients (%)
Haemoglobin decreased (any AE) ([1]; 99 mg m^–2 (n=4)): 0 No. of patients (%)
Hair disorder (any AE) ([1]; 99 mg m^–2 (n=4)): 0 No. of patients (%)
Headache (any AE) ([1]; 99 mg m^–2 (n=4)): 2 (50.0) No. of patients (%)
Herpes simplex infection (any AE) ([1]; 99 mg m^–2 (n=4)): 0 No. of patients (%)
Hypertension (any AE) ([1]; 99 mg m^–2 (n=4)): 1 (25.0) No. of patients (%)
LRTI (any AE) ([1]; 99 mg m^–2 (n=4)): 0 No. of patients (%)
Musculoskeletal chest pain (any AE) ([1]; 99 mg m^–2 (n=4)): 1 (25.0) No. of patients (%)
Nausea (any AE) ([1]; 99 mg m^–2 (n=4)): 1 (25.0) No. of patients (%)
Oral herpes (any AE) ([1]; 99 mg m^–2 (n=4)): 1 (25.0) No. of patients (%)
Rhinitis (any AE) ([1]; 99 mg m^–2 (n=4)): 0 No. of patients (%)
Serious AE ([1]; 99 mg m^–2 (n=4)): 2 (50) No. of patients (%)
Treatment-related AE ([1]; 99 mg m^–2 (n=4)): 3 (75.0) No. of patients (%)
Vomiting (any AE) ([1]; 99 mg m^–2 (n=4)): 1 (25.0) No. of patients (%)
AE (treatment-emergent) ([1]; 132 mg m^–2 (n=6)): 6 (100.0) No. of patients (%)
Abdominal pain (any AE) ([1]; 132 mg m^–2 (n=6)): 2 (33.3) No. of patients (%)
Acne (any AE) ([1]; 132 mg m^–2 (n=6)): 0 No. of patients (%)
Anaemia (any AE) ([1]; 132 mg m^–2 (n=6)): 0 No. of patients (%)
Anorexia (any AE) ([1]; 132 mg m^–2 (n=6)): 1 (16.7) No. of patients (%)
Back pain (any AE) ([1]; 132 mg m^–2 (n=6)): 1 (16.7) No. of patients (%)
Diarrhoea (any AE) ([1]; 132 mg m^–2 (n=6)): 3 (50.0) No. of patients (%)
Dizziness (any AE) ([1]; 132 mg m^–2 (n=6)): 1 (16.7) No. of patients (%)
Fatigue (any AE) ([1]; 132 mg m^–2 (n=6)): 1 (16.7) No. of patients (%)
Haemoglobin decreased (any AE) ([1]; 132 mg m^–2 (n=6)): 2 (33.3) No. of patients (%)
Hair disorder (any AE) ([1]; 132 mg m^–2 (n=6)): 0 No. of patients (%)
Headache (any AE) ([1]; 132 mg m^–2 (n=6)): 4 (66.7) No. of patients (%)
Herpes simplex infection (any AE) ([1]; 132 mg m^–2 (n=6)): 0 No. of patients (%)
Hypertension (any AE) ([1]; 132 mg m^–2 (n=6)): 2 (33.3) No. of patients (%)
LRTI (any AE) ([1]; 132 mg m^–2 (n=6)): 1 (16.7) No. of patients (%)
Musculoskeletal chest pain (any AE) ([1]; 132 mg m^–2 (n=6)): 2 (33.3) No. of patients (%)
Nausea (any AE) ([1]; 132 mg m^–2 (n=6)): 2 (33.3) No. of patients (%)
Oral herpes (any AE) ([1]; 132 mg m^–2 (n=6)): 0 No. of patients (%)
Rhinitis (any AE) ([1]; 132 mg m^–2 (n=6)): 4 (66.7) No. of patients (%)
Serious AE ([1]; 132 mg m^–2 (n=6)): 3 (50.0) No. of patients (%)
Treatment-related AE ([1]; 132 mg m^–2 (n=6)): 5 (83.3) No. of patients (%)
Vomiting (any AE) ([1]; 132 mg m^–2 (n=6)): 3 (50.0) No. of patients (%)
Number of treatment-related AEs per patient (average) ([1]; 176 mg m^–2): 9.2
AE (treatment-emergent) ([1]; 176 mg m^–2 (n=7)): 7 (100.0) No. of patients (%)
Abdominal pain (any AE) ([1]; 176 mg m^–2 (n=7)): 0 No. of patients (%)
Acne (any AE) ([1]; 176 mg m^–2 (n=7)): 0 No. of patients (%)
Anaemia (any AE) ([1]; 176 mg m^–2 (n=7)): 3 (42.9) No. of patients (%)
Anorexia (any AE) ([1]; 176 mg m^–2 (n=7)): 2 (28.6) No. of patients (%)
Back pain (any AE) ([1]; 176 mg m^–2 (n=7)): 0 No. of patients (%)
Diarrhoea (any AE) ([1]; 176 mg m^–2 (n=7)): 4 (57.1) No. of patients (%)
Dizziness (any AE) ([1]; 176 mg m^–2 (n=7)): 0 No. of patients (%)
Fatigue (any AE) ([1]; 176 mg m^–2 (n=7)): 4 (57.1) No. of patients (%)
Haemoglobin decreased (any AE) ([1]; 176 mg m^–2 (n=7)): 0 No. of patients (%)
Hair disorder (any AE) ([1]; 176 mg m^–2 (n=7)): 0 No. of patients (%)
Headache (any AE) ([1]; 176 mg m^–2 (n=7)): 2 (28.6) No. of patients (%)
Herpes simplex infection (any AE) ([1]; 176 mg m^–2 (n=7)): 1 (14.3) No. of patients (%)
Hypertension (any AE) ([1]; 176 mg m^–2 (n=7)): 0 No. of patients (%)
LRTI (any AE) ([1]; 176 mg m^–2 (n=7)): 2 (28.6) No. of patients (%)
Musculoskeletal chest pain (any AE) ([1]; 176 mg m^–2 (n=7)): 1 (14.3) No. of patients (%)
Nausea (any AE) ([1]; 176 mg m^–2 (n=7)): 0 No. of patients (%)
Oral herpes (any AE) ([1]; 176 mg m^–2 (n=7)): 1 (14.3) No. of patients (%)
Rhinitis (any AE) ([1]; 176 mg m^–2 (n=7)): 3 (42.9) No. of patients (%)
Serious AE ([1]; 176 mg m^–2 (n=7)): 1 (14.3) No. of patients (%)
Treatment-related AE ([1]; 176 mg m^–2 (n=7)): 5 (71.4) No. of patients (%)
Vomiting (any AE) ([1]; 176 mg m^–2 (n=7)): 1 (14.3) No. of patients (%)
Dose-limiting toxicities (DLTs) ([1]; 14–176 mg m^–2 iv once daily days 1–5 of 14-day cycle, first cycle): no dose-limiting toxicities; also recorded: no DLTs
Changes in haematological or biochemistry values, vital signs, body weight, ECG results ([1]; all doses): no clinically meaningful changes
Neurotoxicity and thrombocytopenia ([1]; all doses): no apparent neurotoxicity nor significant thrombocytopenia
Tolerability ([1]; all doses): safe and well tolerated
Treatment-related AEs ⩾grade 3 ([1]; all doses): rare
Total number of treatment-related AEs reported ([1]; all doses, all cycles): 127
Total number of AEs reported ([1]; all doses, all cycles, 27 patients): 282
AE: diarrhoea ([1]; all doses, all cycles, N=27): 48.1%
AE: fatigue ([1]; all doses, all cycles, N=27): 33.3%
AE: headache ([1]; all doses, all cycles, N=27): 40.7%
AE: rhinitis ([1]; all doses, all cycles, N=27): 40.7%
Patients reporting AEs ([1]; all doses, all cycles, N=27): 100%
Patients reporting treatment-related AEs ([1]; all doses, all cycles, N=27): 77.8%
Mean blood pressure ([1]; all patients during the study): no apparent dose-related increase
Maximum-tolerated dose (MTD) ([1]; doses up to 176 mg m^–2): not reached
Grade 3/4 AEs considered possibly treatment-related ([1]; lethargy (two episodes) and syncope, QT prolongation, neutrophil decrease): five events in three patients
Recommended phase II dose (RP2D) ([1]; once daily on days 1–5 every 2 weeks, highest dose tested): 176 mg m^–2
Treatment-related AE: diarrhoea ([1]; per patient, all doses, N=27): 33.3%
Treatment-related AE: dizziness ([1]; per patient, all doses, N=27): 7.4%
Treatment-related AE: fatigue ([1]; per patient, all doses, N=27): 29.6%
Treatment-related AE: headache ([1]; per patient, all doses, N=27): 25.9%
Treatment-related AE: nausea ([1]; per patient, all doses, N=27): 14.8%
Treatment-related AE: vomiting ([1]; per patient, all doses, N=27): 7.4%
Deaths during the study, relation to study medication ([1]; two patients, bronchopneumonia and lower respiratory tract infection): unrelated to study medication
Binding affinity to Hsp90 (Hsp90): high binding affinity
